Where a SMILES comes first, the peptide text is derived from it.
Columns and labels:
PDK1 [1] = biological target: T1, PDK1 (Homo sapiens, UniProt O15530); assay: Phosphorylation of GST-p70 S6K-T2 by PDK1 in vitro (32P autoradiography); assay type: biochemical; design: made in house; host or cells: 293 cells or E. coli; settings: GST-PDK1 50 nM
T1 sequence (O15530 1-556): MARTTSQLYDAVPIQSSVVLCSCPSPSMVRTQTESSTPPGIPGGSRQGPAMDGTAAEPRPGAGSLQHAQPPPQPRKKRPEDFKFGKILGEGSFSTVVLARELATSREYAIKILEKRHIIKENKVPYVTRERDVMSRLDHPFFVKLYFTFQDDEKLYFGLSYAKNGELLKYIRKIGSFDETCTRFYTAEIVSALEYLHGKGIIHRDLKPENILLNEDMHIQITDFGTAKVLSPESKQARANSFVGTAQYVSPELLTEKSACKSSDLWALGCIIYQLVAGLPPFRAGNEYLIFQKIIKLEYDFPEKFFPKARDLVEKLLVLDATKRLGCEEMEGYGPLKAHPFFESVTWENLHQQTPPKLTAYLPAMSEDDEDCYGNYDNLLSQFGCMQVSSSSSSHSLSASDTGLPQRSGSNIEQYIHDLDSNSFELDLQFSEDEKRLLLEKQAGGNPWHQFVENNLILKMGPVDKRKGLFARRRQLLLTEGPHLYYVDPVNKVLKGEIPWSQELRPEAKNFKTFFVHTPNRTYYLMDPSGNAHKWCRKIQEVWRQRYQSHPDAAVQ
Procedure: FIG. 1. PIF prevents PDK1 from phosphorylating p70 S6K in vitro. GST-p70 S6K lacking the C-terminal 104 amino acids (GST-p70 S6KT2) (1 μg) was incubated for 30 min at 30° C. with Mg [γ^32P] ATP and GST-PDK1 (50 nM) in the presence or absence of either wild type (wt) GST-PIF or D978A GST-PIF (1.5 μM), or the indicated PIF peptides (4 μM) in a final volume of 20 μl. The reactions were terminated by making the solutions 1% in SDS, the samples subjected to SDS-polyacylamide gel electrophoresis, and the phosphorylation assessed by autoradiography of the gel. The position in the gel where GST-p70 S6KT2 (73 kDa) migrates is indicated with an arrow. The only other ^32P-labelled protein on the gel which is not shown, corresponded to autophosphorylation of PDK1 and contained ˜10 fold lower levels of ^32P-radioactivity than that of the GST-p70 S6T2 phosphorylated by PDK1 in the absence of PIF. A high amount of PDK1 is used in this experiment to achieve a near maximal phosphorylation of GST-p70 S6T2. If the reactions were carried out at a 10-fold lower concentration of PDK1 under conditions where the phosphorylation of GST-p70 S6T2 by PDK1 is linear with time and the amount of substrate used, then PIF still prevented the phosphorylation of GST-p70 S6T2 (data not shown). wt indicates wild type and PSer indicates phospho-serine. The results of a duplicate experiment for each condition are shown, and similar findings were obtained in five separate experiments.
Preparation of insect cell His-p70 S6K. p70 S6K with a His-epitope tag at its N-terminus lacking the carboxy terminal 104 residues is termed p70 S6K-T2. In order to prepare wild type and the mutant 412E-p70 S6K-T2 the cDNA for these constructs was amplified by PCR from the pMT2 vector encoding these forms of p70 S6K [6] using the following oligonucleotides: 5′-AGGATCCACCATGCACCATCACCATCACCATATGAGGCGAGCAAGGAGGCGG-3′ and 5′-GCGGCCGCTCAACTTTCAAGTACAGATGGAGCC-3′. The PCR products were then subcloned into the BamH1/Not1 sites of the pFASTBAC 1 vector and this vector was used to generate recombinant baculovirus using the Bac-to-Bac system (Life Technologies Inc). The resulting viruses, encoded p70 S6K-T2 or 412E-p70 S6K-T2 with an N-terminal hexahistidine sequence, and was used to infect Sf21 cells (1.5×10^6/m) at a multiplicity of infection of 5. The infected cells were harvested 72 h post-infection and the His-p70 S6K proteins purified by Ni^2+/NTA (nitrilotriacetic acid)-agarose chromatography as described previously for PKBβ [25]. […]

PDK1 [2] = settings: ref [24], cited from earlier work

Molecule	effect on phosphorylation of GST-p70 S6K-T2 by PDK1 (PDK1 [1]; GST fusion 1.5 μM)	reduced affinity for PDK1 compared with wild type PIFtide (PDK1 [2])	effect on phosphorylation of GST-p70 S6K-T2 by PDK1 (PDK1 [1]; peptide 4 μM)	Kd (PDK1 [2]; read-out: affinity of PDK1 for PIFtide (Kd))
GST-PIF: glutathione S-transferase fused to the last 77 residues of PRK2 (PIF)	unable to phosphorylate	–	–	–
CC[C@H](C)[C@H](NC(=O)[C@H](CCCNC(=N)N)NC(=O)[C@@H]1CCCN1C(=O)[C@H](CCC(=O)O)NC(=O)[C@@H](N)CCCNC(=N)N)C(=O)N[C@@H](CC(C)C)C(=O)N[C@@H](CO)C(=O)N[C@@H](CCC(=O)O)C(=O)N[C@@H](CCC(=O)O)C(=O)N[C@@H](CCC(=O)O)C(=O)N[C@@H](CCC(N)=O)C(=O)N[C@@H](CCC(=O)O)C(=O)N[C@@H](CCSC)C(=O)N[C@@H](Cc1ccccc1)C(=O)N[C@@H](CCCNC(=N)N)C(=O)N[C@@H](CC(=O)O)C(=O)N[C@@H](Cc1ccccc1)C(=O)N[C@@H](C)C(=O)N[C@@H](Cc1ccc(O)cc1)C(=O)N[C@@H](CC(C)C)C(=O)N[C@@H](C)C(=O)N[C@@H](CC(=O)O)C(=O)N[C@@H](Cc1c[nH]c2ccccc12)C(=O)N[C@@H](CS)C(=O)O [D978A-PIFtide] (H-REPRILSEEEQEMFRDFAYLADWC-OH; N-terminus and C-terminus assumed)	–	10 fold	poorly inhibited	–
CC[C@H](C)[C@H](NC(=O)[C@H](Cc1ccc(O)cc1)NC(=O)[C@H](CC(=O)O)NC(=O)[C@H](Cc1ccccc1)NC(=O)[C@H](CC(=O)O)NC(=O)[C@H](CCCNC(=N)N)NC(=O)[C@H](Cc1ccccc1)NC(=O)[C@H](CCSC)NC(=O)[C@H](CCC(=O)O)NC(=O)[C@H](CCC(N)=O)NC(=O)[C@H](CCC(=O)O)NC(=O)[C@H](CCC(=O)O)NC(=O)[C@H](CCC(=O)O)NC(=O)[C@H](CO)NC(=O)[C@H](CC(C)C)NC(=O)[C@@H](NC(=O)[C@H](CCCNC(=N)N)NC(=O)[C@@H]1CCCN1C(=O)[C@H](CCC(=O)O)NC(=O)[C@@H](N)CCCNC(=N)N)[C@@H](C)CC)C(=O)N[C@@H](C)C(=O)N[C@@H](CC(=O)O)C(=O)N[C@@H](Cc1c[nH]c2ccccc12)C(=O)N[C@@H](CS)C(=O)O [PIFtide] (H-REPRILSEEEQEMFRDFDYIADWC-OH; N-terminus and C-terminus assumed)	–	–	unable to phosphorylate	~300 nM
